From ChEMBL document CHEMBL1201862, “PubChem BioAssay data set” (2004)
Several values for one entry are separate records, joined by “and”; a condition that tells them apart may be missing. Equal values may be shown once.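 Method: 48-hour compound exposure of cells in 96-well plates, five concentrations, linear interpolation of endpoints. GI50 is the concentration that inhibits growth by half.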 Activity calls are given as the source filed them. No stated cut-off is given here; in the data, active = GI50 up to about 1.1 µM and inactive = higher.

Assays:
Assay in all cases: NCI-60 cell line screen, 48 h
RPMI-8226 = system: RPMI-8226
OVCAR-5 = system: OVCAR-5
EKVX = system: EKVX
CCRF-CEM = system: CCRF-CEM
MOLT-4 = system: MOLT-4
HOP-92 = system: HOP-92
COLO 205 = system: COLO 205
IGROV-1 = system: IGROV-1
UO-31 = system: UO-31
UACC-257 = system: UACC-257
SR = system: SR
NCI-H460 = system: NCI-H460
ACHN = system: ACHN
A549 = system: A549
SK-MEL-5 = system: SK-MEL-5
RXF 393 = system: RXF 393
HCT-15 = system: HCT-15
HT-29 = system: HT-29
Malme-3M = system: Malme-3M

Structure (SMILES)	GI50 (RPMI-8226)	GI50 (OVCAR-5)	GI50 (EKVX)	GI50 (CCRF-CEM)	GI50 (MOLT-4)	GI50 (HOP-92)	GI50 (COLO 205)	GI50 (IGROV-1)	GI50 (UO-31)	GI50 (UACC-257)	GI50 (SR)	GI50 (NCI-H460)	GI50 (ACHN)	GI50 (A549)	GI50 (SK-MEL-5)	GI50 (RXF 393)	GI50 (HCT-15)	GI50 (HT-29)	GI50 (Malme-3M)
O=C(Cc1ccccc1CCO)NCCc1ccccc1	> 100 µM (inactive)	> 100 µM (inactive)	> 100 µM (inactive)	> 100 µM (inactive)	> 100 µM (inactive)	> 100 µM (inactive)	> 100 µM (inactive)	> 100 µM (inactive)	41.8 µM (inactive)	> 100 µM (inactive)	> 100 µM (inactive)	> 100 µM (inactive)	> 100 µM (inactive)	> 100 µM (inactive)	> 100 µM (inactive)	> 100 µM (inactive)	> 100 µM	> 100 µM (inactive)	–
Cc1cc(N(CCC#N)CCC#N)ccc1/C=C1\N=C(c2cc([N+](=O)[O-])ccc2Cl)N(c2cccc(Cl)c2)C1=O	> 100 µM (inactive)	> 100 µM (inactive)	23.8 µM (inactive)	71.6 µM (inactive)	79.6 µM (inactive)	> 100 µM (inactive)	87.7 µM (inactive)	> 100 µM (inactive)	> 100 µM (inactive)	> 100 µM (inactive)	94.4 µM (inactive)	> 100 µM (inactive)	> 100 µM (inactive)	> 100 µM (inactive)	> 100 µM (inactive)	–	> 100 µM	45.2 µM (inactive)	> 100 µM (inactive)
COC(=O)CSc1ccccc1	> 100 µM (inactive)	> 100 µM (inactive)	> 100 µM (inactive)	> 100 µM (inactive)	> 100 µM (inactive)	50.9 µM (inactive)	> 100 µM (inactive)	> 100 µM (inactive)	> 100 µM (inactive)	> 100 µM (inactive)	–	> 100 µM (inactive)	> 100 µM (inactive)	> 100 µM (inactive)	> 100 µM (inactive)	> 100 µM (inactive)	> 100 µM	> 100 µM (inactive)	25.4 µM (inactive)
COc1ccc(NC(=O)C2=C(SC)C(=O)N=C2N)cc1	> 100 µM (inactive)	–	> 100 µM (inactive)	> 100 µM (inactive)	> 100 µM (inactive)	> 100 µM (inactive)	> 100 µM (inactive)	61.7 µM (inactive)	> 100 µM (inactive)	> 100 µM (inactive)	40.6 µM (inactive)	> 100 µM (inactive)	> 100 µM (inactive)	–	> 100 µM (inactive)	> 100 µM (inactive)	> 100 µM	> 100 µM (inactive)	–
O=C(O)c1[nH]c(C(=O)O)c(CC(F)(F)C(F)(F)C(F)(F)F)c1CC(F)(F)C(F)(F)C(F)(F)F	> 100 µM (inactive)	> 100 µM (inactive)	> 100 µM (inactive)	> 100 µM (inactive)	–	39.9 µM (inactive)	> 100 µM (inactive)	> 100 µM (inactive)	> 100 µM (inactive)	> 100 µM (inactive)	–	> 100 µM (inactive)	> 100 µM (inactive)	> 100 µM (inactive)	> 100 µM (inactive)	> 100 µM (inactive)	> 100 µM	> 100 µM (inactive)	> 100 µM (inactive)
O=[N+]([O-])c1ccc(Cl)cc1C1SCc2nc3ccccc3n21 (stereo unspecified)	31.2 µM (inactive)	–	69.7 µM (inactive)	34.8 µM (inactive)	36.3 µM (inactive)	–	61.1 µM (inactive)	80.5 µM (inactive)	22.1 µM (inactive)	45.2 µM (inactive)	–	5.3 µM (inactive)	14.3 µM (inactive)	41.7 µM (inactive)	27.7 µM (inactive)	26.6 µM (inactive)	31 µM	> 100 µM (inactive)	99.8 µM (inactive)
O=C1/C(=C\c2ccccc2)C2/C(=C\c3ccccc3)C(=O)/C(=C\c3ccccc3)C2/C1=C\c1ccccc1 (stereo unspecified)	0.336 µM (active)	1.41 µM (inactive)	3.89 µM (inactive)	0.34 µM (active)	0.437 µM (active)	1.69 µM (inactive)	1.52 µM (inactive)	2.01 µM (inactive)	1.7 µM (inactive)	1.79 µM (inactive)	–	1.9 µM (inactive)	2.29 µM (inactive)	2.48 µM (inactive)	1.9 µM (inactive)	1.53 µM (inactive)	1.32 µM	1.34 µM (inactive)	1.77 µM (inactive)
CCCCOC1CC2(c3ccc(OC)cc3)C(=O)c3ccccc3N2O1 (stereo unspecified)	18 µM (inactive)	> 10 µM (inactive)	40.7 µM (inactive)	31.5 µM (inactive)	19 µM (inactive)	–	27.1 µM (inactive)	> 10 µM (inactive)	> 10 µM (inactive)	16 µM (inactive)	–	> 10 µM (inactive)	> 10 µM (inactive)	43.8 µM (inactive)	31.7 µM (inactive)	16.6 µM (inactive)	> 10 µM	–	19.2 µM (inactive)
COc1ccc(/C=c2/sc3n(c2=O)NC(c2ccc(Cl)cc2)NN=3)cc1 (stereo unspecified)	–	> 100 µM (inactive)	> 100 µM (inactive)	> 100 µM (inactive)	> 100 µM (inactive)	46.2 µM (inactive)	> 100 µM (inactive)	> 100 µM (inactive)	> 100 µM (inactive)	–	> 100 µM (inactive)	> 100 µM (inactive)	–	> 100 µM (inactive)	> 100 µM (inactive)	> 100 µM (inactive)	–	> 100 µM (inactive)	> 100 µM (inactive)
O=C(O)Cn1c(=O)[nH]c(=O)c2c1ncn2Cc1ccccc1	> 100 µM (inactive)	> 100 µM (inactive)	> 100 µM (inactive)	> 100 µM (inactive)	> 100 µM (inactive)	> 100 µM (inactive)	> 100 µM (inactive)	–	> 100 µM (inactive)	–	> 100 µM (inactive)	> 100 µM (inactive)	> 100 µM (inactive)	> 100 µM (inactive)	> 100 µM (inactive)	–	> 100 µM	> 100 µM (inactive)	> 100 µM (inactive)
CCCCCC(=O)Cc1cc(OC)cc2c1C(=O)Oc1cc(O)c(C(=O)O)c(CC(=O)CCCCC)c1O2	42 µM (inactive)	> 100 µM (inactive)	33.1 µM (inactive)	40.7 µM (inactive)	27.2 µM (inactive)	–	45 µM (inactive)	39.4 µM (inactive)	–	71.4 µM (inactive)	52.6 µM (inactive)	52.5 µM (inactive)	35.7 µM (inactive)	43.2 µM (inactive)	> 100 µM (inactive)	–	–	41.2 µM (inactive)	51.4 µM (inactive)
C=CCN1/C(=C2\SC(=S)N(c3ccc(C)cc3)C2=O)Sc2c1nc[nH]c2=O	> 100 µM (inactive)	> 100 µM (inactive)	> 100 µM (inactive)	> 100 µM (inactive)	58.9 µM (inactive)	> 100 µM (inactive)	> 100 µM (inactive)	64.9 µM (inactive)	> 100 µM (inactive)	> 100 µM (inactive)	–	> 100 µM (inactive)	> 100 µM (inactive)	> 100 µM (inactive)	66.1 µM (inactive)	26.4 µM (inactive)	47 µM	> 100 µM (inactive)	78.2 µM (inactive)
Nc1nnc2c(-c3ccccc3)n[nH]c2n1	55.3 µM (inactive)	> 100 µM (inactive)	5.9 µM (inactive)	18.5 µM (inactive)	21.7 µM (inactive)	12.6 µM (inactive)	34.4 µM (inactive)	–	28.2 µM (inactive)	50.7 µM (inactive)	27.4 µM (inactive)	26.3 µM (inactive)	30 µM (inactive)	23.5 µM (inactive)	–	34.1 µM (inactive)	52.1 µM	24.4 µM (inactive)	–
CC(C)OP(=S)(NC(=S)c1ccccc1)OC(C)C	–	> 100 µM (inactive)	> 100 µM (inactive)	> 100 µM (inactive)	> 100 µM (inactive)	> 100 µM (inactive)	> 100 µM (inactive)	> 100 µM (inactive)	> 100 µM (inactive)	> 100 µM (inactive)	–	59 µM (inactive)	> 100 µM (inactive)	> 100 µM (inactive)	42.9 µM (inactive)	–	> 100 µM	> 100 µM (inactive)	> 100 µM (inactive)
COC(=O)CC(C(C(C)=O)C(=O)OCc1ccccc1)N1C(=O)OC(c2ccccc2)C1c1ccccc1 (stereo unspecified)	28.8 µM (inactive) and 33.5 µM (inactive)	–	64.4 µM (inactive)	72.4 µM (inactive) and 73.8 µM (inactive)	36.4 µM (inactive) and 42.3 µM (inactive)	–	72.4 µM (inactive) and 77.4 µM (inactive)	> 100 µM (inactive)	–	–	42.7 µM (inactive) and 42.5 µM (inactive)	> 100 µM (inactive)	> 100 µM (inactive)	68.5 µM (inactive) and 76.2 µM (inactive)	60.1 µM (inactive)	–	52.2 µM and 62.5 µM	> 100 µM (inactive)	> 100 µM (inactive)
Cc1nc(-c2nc(C)c(C(=O)NNC(=O)C[n+]3ccccc3)s2)sc1C(=O)NNC(=O)C[n+]1ccccc1	64.6 µM (inactive)	> 100 µM (inactive)	97.3 µM (inactive)	41.3 µM (inactive)	22.7 µM (inactive)	27.5 µM (inactive)	> 100 µM (inactive)	70.6 µM (inactive)	25.9 µM (inactive)	94.2 µM (inactive)	–	> 100 µM (inactive)	59.2 µM (inactive)	> 100 µM (inactive)	45.7 µM (inactive)	39.5 µM (inactive)	56.4 µM	> 100 µM (inactive)	> 100 µM (inactive)
COc1ccc(C2CC(=O)c3c(O)cc(O)cc3O2)cc1O (stereo unspecified)	78 µM (inactive)	> 100 µM (inactive)	> 100 µM (inactive)	> 100 µM (inactive)	> 100 µM (inactive)	–	> 100 µM (inactive)	> 100 µM (inactive)	58.7 µM (inactive)	> 100 µM (inactive)	–	> 100 µM (inactive)	> 100 µM (inactive)	> 100 µM (inactive)	> 100 µM (inactive)	–	> 100 µM	> 100 µM (inactive)	> 100 µM (inactive)
